Source: patent US20240409585A1, “MACROCYCLIC IMMUNOMODULATORS” (priority 2021, published 2024)
Bridge positions count the residues as written; N and C are the ends. Square brackets hold non-standard residues; d marks the D form. Peptide text beside a SMILES is read from it. * marks the point of attachment. ξ: configuration not given here. Trp(1-CH2COOH) = N[C@@H](Cc1cn(CC(=O)O)c2ccccc12)C(=O)O; Ala(morpholin-4-yl) = N[C@@H](CN1CCOCC1)C(=O)O; Phe(4-COOH) = N[C@@H](Cc1ccc(C(=O)O)cc1)C(=O)O; Bip = N[C@@H](Cc1ccc(-c2ccccc2)cc1)C(=O)O; Phe(3-Br) = N[C@@H](Cc1cccc(Br)c1)C(=O)O; Phe(3-Me) = Cc1cccc(C[C@H](N)C(=O)O)c1; 4Pal = N[C@@H](Cc1ccncc1)C(=O)O; Cha = N[C@@H](CC1CCCCC1)C(=O)O; Cit = NC(=O)NCCC[C@H](N)C(=O)O; Ile(3ξ) = CCC(C)[C@H](N)C(=O)O; Thr(3ξ) = CC(O)[C@H](N)C(=O)O; Carboxymethyl = O=C(O)C*; NMeA = CN[C@@H](C)C(=O)O; Orn = NCCC[C@H](N)C(=O)O; Dab = NCC[C@H](N)C(=O)O

What follows are molecules tested against T1, PE-labeled human PD-L1-Ig binding to Jurkat cell line over-expressing human PD-1 (Jurkat-PD-1) (Homo sapiens, UniProt Q15116) (assay: Jurkat-PD-1 Cell Binding High-Content Screening Assay (CBA): Method 1). Conditions: Jurkat-hPD-1 cells, PE-labeled PD-L1-Ig 20 nM final; read-out: Jurkat HPDL1 PD1 IC50 (uM) (Method 1).
T1 construct: expressed in transfected cells; host or cells: Jurkat
T1 sequence (Q15116 25-288): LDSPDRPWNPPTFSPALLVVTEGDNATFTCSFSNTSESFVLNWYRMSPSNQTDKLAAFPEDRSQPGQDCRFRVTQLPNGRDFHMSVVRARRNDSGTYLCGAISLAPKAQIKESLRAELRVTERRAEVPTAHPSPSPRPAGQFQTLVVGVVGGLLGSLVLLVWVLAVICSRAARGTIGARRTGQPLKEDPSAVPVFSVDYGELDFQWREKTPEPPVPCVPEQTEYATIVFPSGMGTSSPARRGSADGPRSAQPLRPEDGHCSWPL

| SMILES | IC50 [µM] |
| --- | --- |
| CCC(C)[C@@H]1NC(=O)[C@H](Cc2ccc(-c3ccccc3)cc2)NC(=O)[C@H](C(C)C)NC(=O)[C@H](Cc2c[nH]c3ccccc23)NC(=O)[C@H](CC(=O)O)NC(=O)[C@H](Cc2ccc(O)cc2)NC(=O)[C@H](CC(N)=O)NC(=O)CSC[C@@H](C(=O)N[C@@H](CC(N)=O)C(N)=O)NC(=O)[C@H](C(C)O)NC(=O)[C@H](C(C)C)NC(=O)[C@H](CC(C)C)NC(=O)[C@H](CCN)NC(=O)[C@@H](CC(C)C)NC(=O)[C@H](C)N(C)C1=O (stereo partly drawn) [Compound 2069] ({CH2CO}-NYDWV[Bip][Ile(3ξ)][NMeA][dL][Dab]LV[Thr(3ξ)]CN-NH2; thioether N-14) | 0.1 |
| CC(C)C[C@@H]1NC(=O)[C@H](CCCNC(=N)N)NC(=O)[C@@H](Cc2ccccc2)NC(=O)[C@H](C)N(C)C(=O)[C@H](CCCNC(=N)N)NC(=O)[C@H](Cc2ccc(-c3ccccc3)cc2)NC(=O)[C@H](C(C)C)NC(=O)[C@H](Cc2c[nH]c3ccccc23)NC(=O)[C@H](CC(=O)O)NC(=O)[C@H](Cc2ccc(O)cc2)NC(=O)[C@H](CCC(N)=O)NC(=O)CSC[C@@H](C(=O)NCC(N)=O)NC(=O)[C@H](CO)NC(=O)[C@H](C(C)C)NC1=O [Compound 1023] ({CH2CO}-QYDWV[Bip]R[NMeA][dF]RLVSCG-NH2; thioether N-14) | 0.14 |
| CCC(C)[C@@H]1NC(=O)[C@H](Cc2ccc(-c3ccccc3)cc2)NC(=O)[C@H](Cc2ccc(O)cc2)NC(=O)[C@H](Cc2cccc(C)c2)NC(=O)[C@H](CC(=O)O)NC(=O)[C@H](Cc2ccc(OCC(=O)O)cc2)NC(=O)[C@H](C(C)O)NC(=O)CSC[C@@H](C(=O)N[C@@H](CO)C(N)=O)NC(=O)[C@H](C(C)O)NC(=O)[C@H](C(C)C)NC(=O)[C@H](CC2CCCCC2)NC(=O)[C@H](CCN)NC(=O)[C@@H](CC(C)C)NC(=O)[C@H](C)N(C)C1=O (stereo partly drawn) [Compound 2121] ({CH2CO}-[Thr(3ξ)]Y(Carboxymethyl)D[Phe(3-Me)]Y[Bip][Ile(3ξ)][NMeA][dL][Dab][Cha]V[Thr(3ξ)]CS-NH2; thioether N-14) | 0.04 |
| CCC(C)[C@@H]1NC(=O)[C@H](Cc2ccc(-c3ccccc3)cc2)NC(=O)[C@H](C(C)C)NC(=O)[C@H](Cc2c[nH]c3ccccc23)NC(=O)[C@H](CC(=O)O)NC(=O)[C@H](Cc2ccc(O)cc2)NC(=O)[C@H](Cc2ccncc2)NC(=O)CSC[C@@H](C(=O)N[C@@H](C)C(N)=O)NC(=O)[C@H](C(C)O)NC(=O)[C@H](CCN)NC(=O)[C@H](CC(C)C)NC(=O)[C@H](CC(N)=O)NC(=O)[C@@H](CC(C)C)NC(=O)[C@H](C)N(C)C1=O (stereo partly drawn) [Compound 2060] ({CH2CO}-[4Pal]YDWV[Bip][Ile(3ξ)][NMeA][dL]NL[Dab][Thr(3ξ)]CA-NH2; thioether N-14) | 0.28 |
| CC(C)C[C@@H]1NC(=O)[C@H](Cc2c[nH]c3ccccc23)NC(=O)[C@H](CC(=O)O)NC(=O)[C@H](Cc2ccc(O)cc2)NC(=O)[C@H](Cc2ccccc2)NC(=O)CSC[C@@H](C(=O)N[C@@H](C)C(N)=O)NC(=O)[C@H](CO)NC(=O)[C@H](C(C)C)NC(=O)[C@H](CC(C)C)NC(=O)[C@H](CC(N)=O)NC(=O)[C@@H](CCCCN)NC(=O)[C@H](C)N(C)C(=O)[C@H](C(C)C)NC(=O)[C@H](Cc2ccc(-c3ccccc3)cc2)NC1=O [Compound 1793] ({CH2CO}-FYDWL[Bip]V[NMeA][dK]NLVSCA-NH2; thioether N-14) | 0.15 |
| CC(C)C[C@@H]1NC(=O)[C@H](Cc2c[nH]c3ccccc23)NC(=O)[C@H](CC(=O)O)NC(=O)[C@H](Cc2ccc(C(=O)O)cc2)NC(=O)[C@H](Cc2ccc(OCC(=O)O)cc2)NC(=O)CSC[C@@H](C(=O)N[C@@H](CC(N)=O)C(N)=O)NC(=O)[C@H](CO)NC(=O)[C@H](C(C)C)NC(=O)[C@H](CC2CCCCC2)NC(=O)[C@H](CCN)NC(=O)[C@@H](CC(C)C)NC(=O)[C@H](C)N(C)C(=O)[C@H](C(C)C)NC(=O)[C@H](Cc2ccc(-c3ccccc3)cc2)NC1=O [Compound 1911] ({CH2CO}-Y(Carboxymethyl)[Phe(4-COOH)]DWL[Bip]V[NMeA][dL][Dab][Cha]VSCN-NH2; thioether N-14) | 0.01 |
| CC(C)C[C@@H]1NC(=O)[C@H](CCCNC(=N)N)NC(=O)[C@H](Cc2cn(CC(=O)O)c3ccccc23)NC(=O)[C@H](C)N(C)C(=O)[C@H](CCCNC(=N)N)NC(=O)[C@H](Cc2ccc(-c3ccccc3)cc2)NC(=O)[C@H](C(C)C)NC(=O)[C@H](Cc2c[nH]c3ccccc23)NC(=O)[C@H](CC(=O)O)NC(=O)[C@H](Cc2ccc(O)cc2)NC(=O)[C@H](Cc2ccccc2)NC(=O)CSC[C@@H](C(=O)NCC(N)=O)NC(=O)[C@H](CO)NC(=O)[C@H](C(C)C)NC1=O [Compound 1011] ({CH2CO}-FYDWV[Bip]R[NMeA][Trp(1-CH2COOH)]RLVSCG-NH2; thioether N-14) | 0.1 |
| Cc1cccc(C[C@@H]2NC(=O)[C@H](CC(=O)O)NC(=O)[C@H](Cc3ccc(O)cc3)NC(=O)[C@H](Cc3ccccc3)NC(=O)CSC[C@@H](C(=O)NCC(N)=O)NC(=O)[C@H](CO)NC(=O)[C@H](C(C)C)NC(=O)[C@H](CC(C)C)NC(=O)[C@H](CC(N)=O)NC(=O)[C@@H](CC(C)C)NC(=O)[C@H](C)N(C)C(=O)[C@H](C(C)C)NC(=O)[C@H](Cc3ccc(-c4ccccc4)cc3)NC(=O)[C@H](CC(C)C)NC2=O)c1 [Compound 1517] ({CH2CO}-FYD[Phe(3-Me)]L[Bip]V[NMeA][dL]NLVSCG-NH2; thioether N-14) | 0.02 |
| CC(C)C[C@@H]1NC(=O)[C@H](Cc2c[nH]c3ccccc23)NC(=O)[C@H](CC(=O)O)NC(=O)[C@H](Cc2ccc(O)cc2)NC(=O)[C@H](Cc2ccccc2)NC(=O)CSC[C@@H](C(=O)NCC(N)=O)NC(=O)[C@H](CO)NC(=O)[C@H](C(C)C)NC(=O)[C@H](CC(C)C)NC(=O)[C@H](CC(N)=O)NC(=O)[C@@H](CC(C)C)NC(=O)[C@H](C)N(C)C(=O)[C@H](CCCNC(N)=O)NC(=O)[C@H](Cc2ccc(-c3ccccc3)cc2)NC1=O [Compound 1509] ({CH2CO}-FYDWL[Bip][Cit][NMeA][dL]NLVSCG-NH2; thioether N-14) | 0.02 |
| CC(C)C[C@@H]1NC(=O)[C@H](Cc2c[nH]c3ccccc23)NC(=O)[C@H](CC(=O)O)NC(=O)[C@H](Cc2ccc(O)cc2)NC(=O)[C@H](Cc2ccccc2)NC(=O)CSC[C@@H](C(=O)NCC(N)=O)NC(=O)[C@H](CO)NC(=O)[C@H](C(C)C)NC(=O)[C@H](CC(C)C)NC(=O)[C@H](CC(=O)O)NC(=O)[C@H](CCCCN)NC(=O)[C@H](C)N(C)C(=O)[C@H](C(C)C)NC(=O)[C@H](Cc2ccc(-c3ccccc3)cc2)NC1=O [Compound 1826] ({CH2CO}-FYDWL[Bip]V[NMeA]KDLVSCG-NH2; thioether N-14) | 0.76 |
| Cc1cccc(C[C@@H]2NC(=O)[C@H](CC(=O)O)NC(=O)[C@H](Cc3ccc(OCC(=O)O)cc3)NC(=O)[C@H](CN3CCOCC3)NC(=O)CSC[C@@H](C(=O)N[C@@H](CCN)C(N)=O)NC(=O)[C@H](CCCN)NC(=O)[C@H](C(C)C)NC(=O)[C@H](Cc3cccc(Br)c3)NC(=O)[C@H](CCN)NC(=O)[C@@H](CC(C)C)NC(=O)[C@H](C)N(C)C(=O)[C@H](CCC(N)=O)NC(=O)[C@H](Cc3ccc(-c4ccccc4)cc3)NC(=O)[C@H](Cc3ccc(C(=O)O)cc3)NC2=O)c1 [Example 2291] ({CH2CO}-[Ala(morpholin-4-yl)]Y(Carboxymethyl)D[Phe(3-Me)][Phe(4-COOH)][Bip]Q[NMeA][dL][Dab][Phe(3-Br)]V[Orn]C[Dab]-NH2; thioether N-14) | 0.21 |
